The record followed here is patent US10160755B2 (Plexxikon Inc., priority 2015, dated 2018).

For one assay, the target named is T1, FLT3-ITD (Homo sapiens, UniProt P36888).
T1 construct: FLT3-ITD; Invitrogen #PV6190
T1 sequence (P36888 1-993): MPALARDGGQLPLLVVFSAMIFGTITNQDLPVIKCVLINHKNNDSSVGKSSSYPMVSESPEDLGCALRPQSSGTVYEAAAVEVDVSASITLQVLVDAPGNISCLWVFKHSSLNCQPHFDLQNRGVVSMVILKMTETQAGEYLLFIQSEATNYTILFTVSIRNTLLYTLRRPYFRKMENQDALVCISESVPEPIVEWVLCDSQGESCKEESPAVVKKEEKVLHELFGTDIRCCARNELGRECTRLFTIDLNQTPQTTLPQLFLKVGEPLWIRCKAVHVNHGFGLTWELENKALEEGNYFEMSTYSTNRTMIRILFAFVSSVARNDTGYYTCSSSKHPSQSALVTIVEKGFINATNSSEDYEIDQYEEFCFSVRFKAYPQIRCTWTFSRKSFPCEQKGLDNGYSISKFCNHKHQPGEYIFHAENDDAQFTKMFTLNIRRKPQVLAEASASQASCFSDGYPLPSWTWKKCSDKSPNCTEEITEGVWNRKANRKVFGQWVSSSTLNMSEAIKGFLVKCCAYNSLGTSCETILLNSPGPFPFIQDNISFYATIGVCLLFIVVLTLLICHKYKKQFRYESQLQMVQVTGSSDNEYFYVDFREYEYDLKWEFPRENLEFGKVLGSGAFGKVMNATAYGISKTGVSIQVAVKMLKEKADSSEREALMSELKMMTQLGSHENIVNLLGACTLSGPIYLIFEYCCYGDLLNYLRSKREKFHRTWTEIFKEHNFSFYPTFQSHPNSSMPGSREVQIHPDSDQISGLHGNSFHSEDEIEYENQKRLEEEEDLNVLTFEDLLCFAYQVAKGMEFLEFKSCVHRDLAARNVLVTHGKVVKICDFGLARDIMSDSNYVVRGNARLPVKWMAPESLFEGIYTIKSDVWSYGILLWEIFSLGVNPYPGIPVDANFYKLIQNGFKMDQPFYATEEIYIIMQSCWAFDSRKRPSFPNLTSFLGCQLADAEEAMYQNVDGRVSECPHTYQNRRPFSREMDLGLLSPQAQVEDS
In words: FLT3-ITD biochemical kinase assay (AlphaScreen). The method in brief:
(§1)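 First, recombinant FLT3 variant phosphorylates a biotinylated poly(Glu4-Tyr) peptide (30 nM) with ATP at 10 μM (D835Y) or 100 μM (ITD). Streptavidin donor beads are then added for 20 min at room temperature, followed by anti-phosphotyrosine PY20 acceptor beads for 60 min. Signal at 580 nm gives IC50.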
On the technique in general: In Alpha technology, singlet oxygen from a donor bead excites a nearby acceptor bead.

The target of a further assay is T2, FLT3-D835Y (Homo sapiens, UniProt P36888, D835Y).
T2 construct: purchased Invitrogen PV3967
T2 sequence (P36888 27-993 D835Y): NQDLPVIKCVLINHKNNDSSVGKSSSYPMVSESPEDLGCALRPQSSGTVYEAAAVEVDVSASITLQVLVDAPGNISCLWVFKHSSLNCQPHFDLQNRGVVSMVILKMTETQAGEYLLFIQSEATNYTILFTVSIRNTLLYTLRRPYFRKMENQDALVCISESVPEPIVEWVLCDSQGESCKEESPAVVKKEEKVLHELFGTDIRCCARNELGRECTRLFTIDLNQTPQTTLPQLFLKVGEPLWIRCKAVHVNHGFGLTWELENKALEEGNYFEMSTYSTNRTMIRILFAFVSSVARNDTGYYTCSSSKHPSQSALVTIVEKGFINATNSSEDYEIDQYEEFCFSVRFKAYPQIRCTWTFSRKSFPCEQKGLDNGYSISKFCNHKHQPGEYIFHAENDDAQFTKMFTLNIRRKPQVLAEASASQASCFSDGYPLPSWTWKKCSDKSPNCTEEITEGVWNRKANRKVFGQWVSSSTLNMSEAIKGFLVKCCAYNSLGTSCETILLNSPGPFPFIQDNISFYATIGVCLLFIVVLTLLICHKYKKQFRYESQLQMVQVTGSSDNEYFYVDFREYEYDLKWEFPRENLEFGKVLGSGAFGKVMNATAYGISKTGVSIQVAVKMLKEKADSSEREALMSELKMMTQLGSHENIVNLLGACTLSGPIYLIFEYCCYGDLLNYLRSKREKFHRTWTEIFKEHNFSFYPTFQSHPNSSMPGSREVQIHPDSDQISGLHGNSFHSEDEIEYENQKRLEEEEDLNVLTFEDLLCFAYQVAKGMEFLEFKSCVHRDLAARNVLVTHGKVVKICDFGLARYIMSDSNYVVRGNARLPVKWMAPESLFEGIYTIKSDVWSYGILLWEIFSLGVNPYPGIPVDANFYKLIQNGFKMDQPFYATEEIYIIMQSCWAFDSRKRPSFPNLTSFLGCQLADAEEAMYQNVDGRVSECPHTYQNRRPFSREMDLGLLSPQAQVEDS
The assay can be described thus: FLT3-D835Y biochemical kinase assay (AlphaScreen). The method in brief:
as §1

What is called IC50 is the concentration that inhibits the measured activity by half. High values mean a need for much substance, low ones inhibition by little substance. As for `COc1cc(C#Cc2cnc3[nH]cc(-c4ccc5ncn(C(C)(C)C)c5c4)c3n2)ccn1` [P-279, 7-(1-(tert-butyl)-1H-benzo[d]imidazol-6-yl)-2-((2-methoxypyridin-4-yl)ethynyl)-5H-pyrrolo[2,3-b]pyrazine], the IC50 at FLT3-ITD and against FLT3-D835Y was 0.0001 to 1 µM in each case.

For the molecule `COc1cc(-c2cnc3[nH]cc(-c4ccc5ncn(C6(C(F)(F)F)CC6)c5c4)c3n2)ccn1` [P-312, 2-(2-methoxy-4-pyridyl)-7-[3-[1-(trifluoromethyl)cyclopropyl]benzimidazol-5-yl]-5H-pyrrolo[2,3-b]pyrazine], the IC50 at FLT3-ITD and at FLT3-D835Y was 0.0001 to 1 µM throughout.

Consider `CCN1CCN(c2cc(-c3cnc4[nH]cc(-c5ccc6ncn(C(C)(C)C)c6c5)c4n3)ccn2)CC1` [P-328, 7-(3-tert-butylbenzimidazol-5-yl)-2-[2-(4-ethylpiperazin-1-yl)-4-pyridyl]-5H-pyrrolo[2,3-b]pyrazine], for which the IC50 at FLT3-ITD and at FLT3-D835Y was 0.0001 to 1 µM each time.

Take `FC(F)(F)Cn1cc(-c2cnc3[nH]cc(-c4ccc5ncn(C6CCCNC6)c5c4)c3c2)cn1` (stereo not drawn) [P-275, 1-(3-piperidyl)-6-[5-[1-(2,2,2-trifluoroethyl)pyrazol-4-yl]-1H-pyrrolo[2,3-b]pyridin-3-yl]benzimidazole]: the IC50 on FLT3-ITD and against FLT3-D835Y was 0.0001 to 1 µM each time.

With `CC(C)(C)n1cnc2ccc(-c3c[nH]c4ncc(-c5ccc(N6CCCCC6)nc5)nc34)cc21` [P-347, 7-(1-(tert-butyl)-1H-benzo[d]imidazol-6-yl)-2-(6-(piperidin-1-yl)pyridin-3-yl)-5H-pyrrolo[2,3-b]pyrazine], the IC50 against FLT3-ITD and against FLT3-D835Y was 0.0001 to 1 µM throughout.

`COc1cnc2[nH]cc(-c3ccc4ncn(C5CCC5)c4c3)c2c1` [P-061, 1-cyclobutyl-6-(5-methoxy-1H-pyrrolo[2,3-b]pyridin-3-yl)benzimidazole]: the half-maximal inhibitory concentration (IC50) against FLT3-ITD and at FLT3-D835Y was 0.0001 to 1 µM throughout.

Take `c1cc(-c2cnc3[nH]cc(-c4ccc5ncn(C6CCCNC6)c5c4)c3n2)cc(N2CCCCC2)c1` (stereo not drawn) [P-337, 7-[3-(3-piperidyl)benzimidazol-5-yl]-2-[3-(1-piperidyl)phenyl]-5H-pyrrolo[2,3-b]pyrazine]: the IC50 on FLT3-ITD and at FLT3-D835Y was 0.0001 to 1 µM throughout.

Regarding `CCN1CCN(c2cccc(-c3cnc4[nH]cc(-c5ccc6ncn(C(C)(C)C)c6c5)c4n3)c2)CC1` [P-330, 7-(3-tert-butylbenzimidazol-5-yl)-2-[3-(4-ethylpiperazin-1-yl)phenyl]-5H-pyrrolo[2,3-b]pyrazine], the IC50 against FLT3-ITD and against FLT3-D835Y was 0.0001 to 1 µM in each case.

Regarding `CC(C)(C)n1cnc2ccc(-c3c[nH]c4ncc(-c5cccc(N6CCCCC6)c5)nc34)cc21` [P-336, 7-(3-tert-butylbenzimidazol-5-yl)-2-[3-(1-piperidyl)phenyl]-5H-pyrrolo[2,3-b]pyrazine], the half-maximal inhibitory concentration (IC50) at FLT3-ITD and against FLT3-D835Y was 0.0001 to 1 µM each time.

For `CN1CCN(c2ccc(-c3cnc4[nH]cc(-c5ccc6ncn(C7CCCNC7)c6c5)c4n3)cc2)CC1` (stereo not drawn) [P-344, 2-[4-(4-methylpiperazin-1-yl)phenyl]-7-[3-(3-piperidyl)benzimidazol-5-yl]-5H-pyrrolo[2,3-b]pyrazine], the 50% inhibitory concentration (IC50) at FLT3-ITD and against FLT3-D835Y was 0.0001 to 1 µM in each case.

Turning to `CC(C)(C)n1cnc2ccc(-c3n[nH]c4ncc(-c5cccc(N6CCCS6(=O)=O)c5)cc34)cc21` [P-296, 2-[3-[3-(3-tert-butylbenzimidazol-5-yl)-1H-pyrazolo[3,4-b]pyridin-5-yl]phenyl]-1,2-thiazolidine 1,1-dioxide], the IC50 against FLT3-ITD and against FLT3-D835Y was 0.0001 to 1 µM each time.

Consider `Cc1cc(C#Cc2cnc3[nH]cc(-c4ccc5ncn(C6CCCNC6)c5c4)c3n2)cc(C)n1` (stereo not drawn) [P-283, 2-[2-(2,6-dimethyl-4-pyridyl)ethynyl]-7-[3-(3-piperidyl)benzimidazol-5-yl]-5H-pyrrolo[2,3-b]pyrazine], for which the IC50 at FLT3-ITD and on FLT3-D835Y was 0.0001 to 1 µM each time.

`COc1cc(C#Cc2cnc3[nH]cc(-c4ccc5ncn(C6CCCNC6)c5c4)c3n2)ccn1` (stereo not drawn) [P-280, 2-((2-methoxypyridin-4-yl)ethynyl)-7-(1-(piperidin-3-yl)-1H-benzo[d]imidazol-6-yl)-5H-pyrrolo[2,3-b]pyrazine]: the IC50 on FLT3-ITD and against FLT3-D835Y was 0.0001 to 1 µM in each case.

On to `Cc1ncc(-c2cnc3[nH]cc(-c4ccc5ncn(C(C)(C)C)c5c4)c3n2)cn1` [P-289, 7-(3-tert-butylbenzimidazol-5-yl)-2-(2-methylpyrimidin-5-yl)-5H-pyrrolo[2,3-b]pyrazine], for which the IC50 on FLT3-ITD and against FLT3-D835Y was 0.0001 to 1 µM in each case.

As for `CCN1CCN(c2ccc(-c3cnc4[nH]cc(-c5ccc6ncn(C(C)(C)C)c6c5)c4n3)cn2)CC1` [P-365, 7-(3-tert-butylbenzimidazol-5-yl)-2-[6-(4-ethylpiperazin-1-yl)-3-pyridyl]-5H-pyrrolo[2,3-b]pyrazine], the IC50 on FLT3-ITD and against FLT3-D835Y was 0.0001 to 1 µM throughout.

For the molecule `CC(C)(C)n1cnc2ccc(-c3c[nH]c4nnc(Cl)cc34)cc21` [P-314, 5-(3-tert-butylbenzimidazol-5-yl)-3-chloro-7H-pyrrolo[2,3-c]pyridazine], the IC50 against FLT3-ITD and at FLT3-D835Y was 0.0001 to 1 µM each time.

As for `COc1cc(-c2cnc3[nH]cc(-c4ccc5ncn(C6CCCN(S(C)(=O)=O)C6)c5c4)c3n2)ccn1` (stereo not drawn) [P-281, 2-(2-methoxy-4-pyridyl)-7-[3-(1-methylsulfonyl-3-piperidyl)benzimidazol-5-yl]-5H-pyrrolo[2,3-b]pyrazine], the IC50 against FLT3-ITD and against FLT3-D835Y was 0.0001 to 1 µM throughout.

As for `c1cc(N2CCCCC2)ccc1-c1cnc2[nH]cc(-c3ccc4ncn(C5CCCNC5)c4c3)c2n1` (stereo not drawn) [P-346, 7-[3-(3-piperidyl)benzimidazol-5-yl]-2-[4-(1-piperidyl)phenyl]-5H-pyrrolo[2,3-b]pyrazine], the IC50 at FLT3-ITD and at FLT3-D835Y was 0.0001 to 1 µM each time.

Regarding `CCN1CCN(c2ccc(-c3cnc4[nH]cc(-c5ccc6ncn(C7CCCNC7)c6c5)c4n3)cc2)CC1` (stereo not drawn) [P-359, 2-[4-(4-ethylpiperazin-1-yl)phenyl]-7-[3-(3-piperidyl)benzimidazol-5-yl]-5H-pyrrolo[2,3-b]pyrazine], the IC50 on FLT3-ITD and against FLT3-D835Y was 0.0001 to 1 µM in each case.

Consider `FC(F)n1cc(-c2cnc3[nH]cc(-c4ccc5ncn(C6CCCNC6)c5c4)c3c2)cn1` (stereo not drawn) [P-274, 5-[1-(difluoromethyl)pyrazol-4-yl]-3-[3-(3-piperidyl)benzimidazol-5-yl]-1H-pyrrolo[2,3-b]pyridine], for which the IC50 on FLT3-ITD and on FLT3-D835Y was 0.0001 to 1 µM throughout.

`COc1cc(-c2cnc3[nH]cc(-c4ccc5ncn(C(C)(C)C)c5c4)c3c2)c(OC)nn1` [P-292, 1-tert-butyl-6-[5-(3,6-dimethoxypyridazin-4-yl)-1H-pyrrolo[2,3-b]pyridin-3-yl]benzimidazole]: the IC50 against FLT3-ITD and on FLT3-D835Y was 0.0001 to 1 µM in each case.
